# Data published in patent US5159080A, “Indole compounds, a process for their preparation, and pharmaceutical compositions containing them” (Madaus AG, priority 1988, dated 1992).
# Where two headings read alike, the source gives them in different places.
# How the values were obtained:
# [1] = Change of heart frequency and average blood pressure in narcotized rats (maximum effect over 2 hours); type: in vivo; conditions: Rattus norvegicus, iv, maximum effect over 2 h, hemi-tartrate; for change in vivo at 5 mg/kg: 5 mg/kg i.v.; for change in vivo at 10 mg/kg: 10 mg/kg i.v.; for change in vivo at 2 mg/kg: 2 mg/kg i.v.; for change in vivo at 20 mg/kg: 20 mg/kg i.v.; for change in vivo at 1 mg/kg: 1 mg/kg i.v.
# guinea pig left auricles = assay: Isolated left auricles stimulated with 1 Hz, inotropic effect; conditions: Cavia porcellus, read-out: Maximum effect in % of initial value, LEFT AURICLE INTROPIC; for Emax at 0.5 µg/mL: 0.5 μg/ml; for Emax at 2 µg/mL: 2.0 μg/ml; for Emax at 4 µg/mL: 4.0 μg/ml; for Emax at 10 µg/mL: 10.0 μg/ml; for Emax at 20 µg/mL: 20.0 μg/ml
# Method: (§1) The test process employed is described, inter alia, in: Staff of the Department of Pharmacology, University of Edinburgh (1970): Pharmacological Experiments on Isolated Preparation, Churchill Livingston, Edinburgh, London and New York, page 112.
# (§2) Animals having a body weight of about 500 g, were used and were divided into groups of 4 animals each. The compounds to be tested were dissolved in tyrode solution/sodium chloride solution 50:50 v/v and the desired concentration adjusted in the bath liquid. The experiment was carried out in the known manner.
# [2] = system: guinea pig right auricles; assay: Isolated, spontaneously beating right auricles, chronotropic effect; conditions: Cavia porcellus, read-out: Maximum effect in % of initial value, RIGHT AURICLE CHRONOTROPIC; for Emax at 2 µg/mL: 2.0 μg/ml; for Emax at 4 µg/mL: 4.0 μg/ml; for Emax at 10 µg/mL: 10.0 μg/ml; for Emax at 20 µg/mL: 20.0 μg/ml
# Method: as §1, §2
# [3] = read-out: BLOOD PRESSURE CHANGE AVERAGE PRESSURE (%)
# [4] = read-out: CHANGE OF HEART FREQUENCY (%)
Structure (SMILES),"change in vivo at 5 mg/kg [1, 3]","change in vivo at 5 mg/kg [1, 4]","change in vivo at 10 mg/kg [1, 3]",Emax at 2 µg/mL (guinea pig left auricles),Emax at 4 µg/mL (guinea pig left auricles),Emax at 10 µg/mL (guinea pig left auricles),Emax at 2 µg/mL [2],Emax at 4 µg/mL [2],Emax at 10 µg/mL [2],"change in vivo at 10 mg/kg [1, 4]","change in vivo at 2 mg/kg [1, 3]","change in vivo at 2 mg/kg [1, 4]",further results
Cc1ccc2[nH]c3c(c2c1)C[C@@H]1CN(C)CC[C@@H]1CC3=O (relative stereo) [SI-WG 379],-19.2%,-17.4%,-22%,24%,24%,23%,-35%,-46%,-81%,–,–,–,Emax at 0.5 µg/mL (guinea pig left auricles): 8%; Emax at 0.5 µg/mL ([2]; 0.5 μg/ml): -14%
CN1CC[C@@H]2CC(=O)c3[nH]c4ccc(Br)cc4c3C[C@@H]2C1 (relative stereo) [SI-WG 399],–,-6.6%,–,25%,13%,–,-43%,-66%,-83%,-12.1%,–,–,inhibition at 0.5 µg/mL ([2]; 0.5 μg/ml): 22%
CN1CC[C@@H]2CC(=O)c3[nH]c4ccc(F)cc4c3C[C@@H]2C1 (relative stereo) [SI-WG 419],-21.4%,-12.1%,-26.7%,6%,-7%,-27%,-30%,-42%,-80%,-22.8%,-10.6%,-7.5%,Emax at 0.5 µg/mL (guinea pig left auricles): 6%; Emax at 0.5 µg/mL ([2]; 0.5 μg/ml): -18%
O=C1C[C@H]2CCNC[C@H]2Cc2c1[nH]c1ccccc21 (relative stereo) [SI-WG 422],–,–,–,-12.2%,-14.9%,–,-19.3%,-36.1%,–,-12.8%,–,–,"change in vivo at 20 mg/kg [1, 3]: 21.8%; change in vivo at 20 mg/kg [1, 4]: -15.5%; Emax at 0.5 µg/mL (guinea pig left auricles): -4.2%; Emax at 0.5 µg/mL ([2]; 0.5 μg/ml): -6.7%"
COc1ccc2[nH]c3c(c2c1)C[C@@H]1CN(C)CC[C@@H]1CC3=O (relative stereo) [SI-WG 449],-10%,-12%,-22%,16%,–,23%,-19%,–,-40%,-17%,-16%,–,Emax at 20 µg/mL (guinea pig left auricles): 20%; Emax at 20 µg/mL [2]: -57%
CC(C)c1ccc2[nH]c3c(c2c1)C[C@@H]1CN(C)CC[C@@H]1CC3=O (relative stereo) [SI-WG 454],-7.4%,-20.3%,–,-7.9%,–,-11.4%,-26.4%,–,-65.1%,–,-6.8%,-9%,"change in vivo at 1 mg/kg [1, 3]: -4.8%; change in vivo at 1 mg/kg [1, 4]: -7.6%; Emax at 20 µg/mL (guinea pig left auricles): -33.3%; Emax at 20 µg/mL [2]: -72.7%"
CCCN1CC[C@@H]2CC(=O)c3[nH]c4ccccc4c3C[C@@H]2C1 (relative stereo) [SI-WG 533],-20.1%,-9.7%,-22.7%,11.1%,18.1%,17%,-15.9%,-26%,-34.1%,-17.9%,–,–,"change in vivo at 20 mg/kg [1, 3]: -37.4%; change in vivo at 20 mg/kg [1, 4]: -19.8%"
CN1CC[C@@H]2CC(=O)c3[nH]c4cc5c(cc4c3C[C@@H]2C1)OCO5 (relative stereo) [SI-WG 562],-9.4%,–,-12.4%,-4.1%,-6%,-7.4%,-11.3%,-15.7%,-31.8%,-6%,-3.4%,–,–
"CN1CC[C@@H]2CC(=O)c3[nH]c4ccc(O)cc4c3C[C@@H]2C1 (relative stereo) [SI-WG 571, 1.3.4.4a,5,7,12, 12a-octahydro-10-hydroxy-2-methyl-2H-pyrido[3',4':4,5] cyclohept [1,2-b] indol-6-one]",–,–,-14.1%,–,-3.9%,-11.4%,-3.1%,-8.4%,-9.1%,-11.6%,–,-1.4%,–
CN1CC[C@@H]2CC(=O)c3[nH]c4ccc(C(C)(C)C)cc4c3C[C@@H]2C1 (relative stereo) [SI-WG 578],2%,-10.2%,–,-3.6%,-12.1%,-10.9%,-19.4%,-28.1%,-52.9%,–,–,-6.2%,–
COc1cccc2c3c([nH]c12)C(=O)C[C@H]1CCN(C)C[C@H]1C3 (relative stereo) [SI-WG 583],-11.7%,-10%,-12%,–,-5.1%,-14.9%,-16.1%,-23.7%,-30.3%,-11.2%,2.3%,-3.4%,–
COc1cc2[nH]c3c(c2c(OC)c1OC)C[C@@H]1CN(C)CC[C@@H]1CC3=O (relative stereo) [SI-WG 587],12.2%,–,11.6%,–,14.9%,29.4%,–,-10.4%,-13.9%,-4.8%,–,–,Emax at 20 µg/mL (guinea pig left auricles): 31.8%; Emax at 20 µg/mL [2]: -19.8%
CN1CC[C@@H]2CC(=O)c3c(c4ccccc4n3C)C[C@@H]2C1 (relative stereo) [SI-WG 591],–,–,–,11.8%,12%,27.4%,-20%,-31.9%,-43.9%,–,–,–,–
CN1CC[C@@H]2CC(=O)c3[nH]c4ccc(C#N)cc4c3C[C@@H]2C1 (relative stereo) [SI-WG 600],-6%,-8.9%,4.8%,12.4%,23%,30%,-25.2%,-32.7%,-49.1%,-9.4%,9.5%,–,–
CC(=O)Nc1ccc2[nH]c3c(c2c1)C[C@@H]1CN(C)CC[C@@H]1CC3=O (relative stereo) [SI-WG 604],–,–,-10.7%,–,–,9.8%,–,–,-10.2%,–,–,–,"change in vivo at 20 mg/kg [1, 3]: -15.6%; Emax at 20 µg/mL (guinea pig left auricles): 8.2%; Emax at 60 µg/mL (guinea pig left auricles; 60.0 μg/ml): 13.8%; Emax at 20 µg/mL [2]: -15.6%; Emax at 60 µg/mL ([2]; 60.0 μg/ml): -24.7%"
CN1CC[C@@H]2CC(=O)c3[nH]c4c(O)cccc4c3C[C@@H]2C1 (relative stereo) [SI-WG 625],-9.4%,-8.4%,–,–,-4.7%,-8.9%,-13.8%,-17.4%,-26.3%,–,–,–,–
